Reference: ChEMBL document CHEMBL5625185 (Eur J Med Chem, 2023)

What was measured:
Assay type in all cases: ADME, organism-based
Conditions in all cases: in vivo; call rule not given here
[1] = Drug distribution in wild type mouse liver at 50 mg/kg, po measured after 1 hr by UPLC-QTOFMS analysis
[2] = Drug distribution in wild type mouse kidney at 50 mg/kg, po measured after 1 hr by UPLC-QTOFMS analysis
[3] = Cmax in wild type mouse at 50 mg/kg, po measured upto 8 hrs by UPLC-QTOFMS analysis
[4] = Drug distribution in wild type mouse spleen at 50 mg/kg, po measured after 1 hr by UPLC-QTOFMS analysis
[5] = Drug distribution in wild type mouse testis at 50 mg/kg, po measured after 1 hr by UPLC-QTOFMS analysis
[6] = Drug distribution in wild type mouse brain at 50 mg/kg, po measured after 1 hr by UPLC-QTOFMS analysis
[7] = Drug distribution in wild type mouse lung at 50 mg/kg, po measured after 1 hr by UPLC-QTOFMS analysis

Structure (SMILES) | Drug uptake [1] | Drug uptake [2] | Cmax [3] | Drug uptake [4] | Drug uptake [5] | Drug uptake [6] | Drug uptake [7]
COc1ccc2c3c([nH]c2c1)[C@H](CC(C)C)N1C(=O)[C@H](CCC(=O)NC(C)C)NC(=O)[C@@H]1C3 | Active | Active | 8.74 µM | Active | Not Active | Not Active | Active
COc1ccc2c3c([nH]c2c1)[C@H](CC(C)C)N1C(=O)[C@H](CCC(=O)NC(C)(C)C)NC(=O)[C@@H]1C3 | Active | Active | – | Active | Not Active | Not Active | Active
